Data: patent publication US20230331718A1, “COMPOSITIONS FOR MODULATING SPLICING” (Skyhawk Therapeutics, Inc., priority 2020, published 2023)

Assays:
SMN2 Protein = experiment: SMN Protein Assay (MSD); assay type: cell-based, human; settings: SMA patient fibroblasts, 48 hours, 0.6 nM to 2.5 µM
Outline: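 SMA patient fibroblasts at 7,000 cells/well treated 48 h with compound from 0.6 nM to 2.5 µM, then lysed. SMN protein in lysate quantified by Mesoscale Discovery immunoassay against an SMN standard curve (19.5 pg/ml–1 µg/ml), giving absolute amounts.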

[1] = system: SMN2 Splicing D7 (SMN Δ7 transcript); experiment: SMN Quantitative Splicing Assay (qPCR); assay type: cell-based, human; settings: 24 h, SMA patient fibroblasts (GM03813), 2.5 µM to 0.6 nM
Description: Spinal muscular atrophy (SMA) patient fibroblasts (GM03813, Coriell) were plated in 96-well plates at 50,000 cells/well. […] Treated cells were lysed and cDNA synthesized using the Fast Advanced Cells-to-Ct kit (Thermofisher A35378) according to the manufacturer’s instructions. 2 µL of each cDNA were used in qPCR reactions. […] Reactions were run in a Quant Studio 6 qPCR instrument with default settings.

SMILES	EC50 (SMN2 Protein)	IC50 ([1]; Homo sapiens, Fibroblast)	IC50 [1]
CN(c1cnc(-c2cc3c(F)cn(C)c(=O)c3cc2O)nn1)[C@H]1C[C@@H]2CCC(N2)[C@H]1F [Compound 66, 4-Fluoro-6-(6-{[(2R,3S,5S)-2-fluoro-8-azabicyclo[3.2.1]octan-3-yl](methyl)amino}-1,2,4-triazin-3-yl)-7-hydroxy-2-methylisoquinolin-1-one]	0.01 to 15 nM	0.01 to 15 nM	
CN(c1cnc(-c2cc3ccncc3cc2O)nn1)C1CC2CCC(N2)[C@H]1F (stereo partly shown) [Compound 22]	0.01 to 15 nM	16 to 50 nM	
CN(c1cnc(-c2cc3ncn(C)c(=O)c3cc2O)nn1)C1CC2CC[C@@](C)(N2)[C@H]1F (stereo partly shown) [Compound 136]	0.01 to 15 nM	0.01 to 15 nM	
CN(c1cnc(-c2cc3c(F)cn(C)c(=O)c3cc2O)nn1)C1CC2CCCC(N2)[C@@H]1F (stereo partly shown) [Compound 138]	0.01 to 15 nM	16 to 50 nM	
CN(c1cnc(-c2cc3occc(=O)c3cc2O)nn1)[C@H]1C[C@]2(C)CC[C@@](C)(N2)[C@H]1F [Compound 62]	0.01 to 15 nM	0.01 to 15 nM	
CCc1coc2cc(-c3ncc(N(C)[C@H]4C[C@@H]5CC[C@@H](N5)[C@H]4F)nn3)c(O)cc2c1=O (single isomer, unassigned) [Compound 96]	0.01 to 15 nM	0.01 to 15 nM	
Cc1cnc2cc(-c3ncc(N(C)[C@@H]4CC5CCCC(N5)[C@@H]4F)nn3)c(O)cc2n1 (stereo partly shown) [Compound 105]	16 to 50 nM	101 to 500 nM	
CN(c1cnc(-c2cc3cc[nH]c(=O)c3cc2O)nn1)[C@H]1C[C@@H]2CCC(N2)[C@H]1F [Compound 169]	0.01 to 15 nM	16 to 50 nM	
Cc1cnc2cc(O)c(-c3ncc(N(C)[C@@H]4CC5CCC(N5)[C@@H]4F)nn3)cc2n1 (stereo partly shown) [Compound 51]	51 to 100 nM	51 to 100 nM	
CN(c1cnc(-c2cc3ncn(C)c(=O)c3cc2O)nn1)C1CC2CC(F)(F)C(C1)N2 (stereo not shown) [Compound 144]	0.01 to 15 nM		0.01 to 15 nM
CN(c1cnc(-c2cc3oc(C(F)(F)F)cc(=O)c3cc2O)nn1)[C@H]1C[C@@H]2CCC(N2)[C@H]1F [Compound 80]	0.01 to 15 nM	0.01 to 15 nM	
Cc1coc2cc(-c3ncc(N(C)C4CC5CCC(N5)[C@H]4F)nn3)c(O)cc2c1=O (stereo partly shown) [Compound 28]	0.01 to 15 nM	0.01 to 15 nM	
CN(c1cnc(-c2cc3c(F)cn(C)c(=O)c3cc2O)nn1)[C@H]1C[C@@H]2CC[C@@](C)(N2)[C@H]1F [Compound 187]	0.01 to 15 nM	0.01 to 15 nM	
[2H]C([2H])([2H])N(c1cnc(-c2cc3ccn(C([2H])([2H])[2H])c(=O)c3cc2O)nn1)[C@@H]1CC2CC[C@H](N2)[C@@H]1F [Compound 168]	0.01 to 15 nM	51 to 100 nM	
CN(c1cnc(-c2cc3occc(=O)c3cc2O)nn1)[C@H]1C[C@@H]2CCC(N2)[C@H]1F [Compound 18]	0.01 to 15 nM	0.01 to 15 nM	
CN(c1cnc(-c2cc3ncn(C)c(=O)c3cc2O)nn1)C1CC2CCCC(N2)C1F (stereo not shown) [Compound 123]	0.01 to 15 nM	0.01 to 15 nM	
CN(c1cnc(-c2cc3ccncc3cc2O)nn1)C1CC2CCC(N2)C1F (stereo not shown) [Compound 21]	16 to 50 nM	101 to 500 nM	
Cc1cnc2cc(-c3ncc(N(C)[C@@H]4CC5CC[C@H](N5)[C@@H]4F)nn3)c(O)cc2n1 [Compound 53]	101 to 500 nM	51 to 100 nM	
[2H]C([2H])([2H])n1nc(F)c2cc(-c3ncc(N(C)[C@H]4C[C@@H]5CCC(N5)[C@H]4F)nn3)c(O)cc2c1=O [Compound 191]	0.01 to 15 nM	0.01 to 15 nM	
CN(c1cnc(-c2cc3ncn(C)c(=O)c3cc2O)nn1)C1CC2CC[C@](C)(N2)[C@@H]1F (stereo partly shown) [Compound 135]	0.01 to 15 nM	0.01 to 15 nM	
CN(c1cnc(-c2cc3cnn(C)c(=O)c3cc2O)nn1)[C@H]1C[C@]2(C)CCC(N2)[C@H]1F [Compound 185]	0.01 to 15 nM	0.01 to 15 nM	
Cc1cc2cc(-c3ncc(N(C)[C@@H]4CC5CCC(N5)[C@@H]4F)nn3)c(O)cc2cn1 (stereo partly shown) [Compound 43]	16 to 50 nM	51 to 100 nM	
CN(c1cnc(-c2cc3occc(=O)c3cc2O)nn1)[C@H]1C[C@@H]2CCCC(N2)[C@H]1F [Compound 63]	0.01 to 15 nM	16 to 50 nM	
Cc1cc(=O)c2cc(O)c(-c3ncc(N(C)[C@H]4CC5CC[C@@H](N5)[C@H]4F)nn3)cc2o1 (single isomer, unassigned) [Compound 6B]	0.01 to 15 nM	0.01 to 15 nM	

SMILES	EC50 (SMN2 Protein)	IC50 ([1]; Homo sapiens, Fibroblast)	IC50 [1]
CCn1ncc2cc(-c3ncc(N(C)[C@@H]4CC5CC[C@H](N5)[C@@H]4F)nn3)c(O)cc2c1=O [Compound 164]	16 to 50 nM	51 to 100 nM	
CC(C)n1ncc2cc(-c3ncc(N(C)C4CC5CCC(N5)[C@@H]4F)nn3)c(O)cc2c1=O (stereo partly shown) [Compound 29]	501 to 10000 nM	501 to 10000 nM	
Cc1nc2cc(-c3ncc(N(C)[C@H]4CC5CC[C@@H](N5)[C@H]4F)nn3)c(O)cc2c(=O)n1C [Compound 205]	0.01 to 15 nM	0.01 to 15 nM	
Cc1cc2cc(O)c(-c3ncc(N(C)[C@H]4CC5CCC(N5)[C@H]4F)nn3)cc2cn1 (stereo partly shown) [Compound 46]	0.01 to 15 nM	0.01 to 15 nM	
CN(c1cnc(-c2cc3ncn(C)c(=O)c3cc2O)nn1)[C@H]1C[C@]2(C)COC[C@](C)(C1)N2 [Compound 150]	0.01 to 15 nM	0.01 to 15 nM	
CCN1C=C(F)c2cc(-c3ncc(N(C)[C@@H]4CC5CCC(N5)[C@@H]4F)nn3)c(O)cc2O1 (stereo partly shown) [Compound 162]	0.01 to 15 nM	51 to 100 nM	
Cc1cnc2cc(O)c(-c3ncc(N(C)[C@@H]4CC5CCCC(N5)[C@@H]4F)nn3)cc2n1 (stereo partly shown) [Compound 159]	0.01 to 15 nM	16 to 50 nM	
Cc1nc2cc(O)c(-c3ncc(N(C)[C@H]4CC5CC[C@@H](N5)[C@H]4F)nn3)cc2nc1C [Compound 85]	16 to 50 nM	0.01 to 15 nM	
CN(c1cnc(-c2cc3ccn(CC(F)(F)F)c(=O)c3cc2O)nn1)[C@H]1C[C@@H]2CC[C@@H](N2)[C@H]1F [Compound 100]	0.01 to 15 nM	16 to 50 nM	
CN(c1cnc(-c2cc3ccn(C)c(=O)c3cc2O)nn1)[C@H]1C[C@]2(C)COC[C@](C)(C1)N2 [Compound 152]	0.01 to 15 nM	0.01 to 15 nM	
CN(c1cnc(-c2cc3cnn(C)c(=O)c3cc2O)nn1)C1CC2CCC(C)(N2)C1F (stereo not shown) [Compound 184]	0.01 to 15 nM	0.01 to 15 nM	
CCn1ccc2cc(-c3ncc(N(C)C4CC5CCCC(N5)C4F)nn3)c(O)cc2c1=O (stereo not shown) [Compound 122]	501 to 10000 nM	51 to 100 nM	
CN(c1cnc(-c2cc3c(=O)ccoc3cc2O)nn1)[C@H]1CC2CCCC(N2)[C@H]1F (stereo partly shown) [Compound 110]	101 to 500 nM	51 to 100 nM	
[2H]C([2H])([2H])N(c1cnc(-c2cc3ccn(C([2H])([2H])[2H])c(=O)c3cc2O)nn1)[C@H]1C[C@@H]2CCC(N2)[C@H]1F [Compound 167]	0.01 to 15 nM	0.01 to 15 nM	
CN(c1cnc(-c2cc3oc(C(F)(F)F)cc(=O)c3cc2O)nn1)[C@H]1C[C@@H]2CCCC(N2)[C@H]1F [Compound 166]	0.01 to 15 nM	16 to 50 nM	
[2H]C([2H])([2H])n1cc(F)c2cc(-c3ncc(N(C)[C@@H]4CC5CC[C@H](N5)[C@@H]4F)nn3)c(O)cc2c1=O [Compound 192]	0.01 to 15 nM	0.01 to 15 nM	
Cc1nc2cc(O)c(-c3ncc(N(C)[C@H]4C[C@@H]5CCC(N5)[C@H]4F)nn3)cc2nc1C [Compound 56]	16 to 50 nM	0.01 to 15 nM	
Cc1cc(=O)c2cc(O)c(-c3ncc(N(C)[C@H]4CC5CCC[C@@H](N5)[C@H]4F)nn3)cc2o1 [Compound 127]	0.01 to 15 nM	0.01 to 15 nM	
CN(c1cnc(-c2cc3ncn(C)c(=O)c3cc2O)nn1)[C@@H]1CC2CCC(N2)[C@@H]1F (single isomer, unassigned) [Compound 3A]	16 to 50 nM	16 to 50 nM	
CN(c1cnc(-c2cc3ccn(C)c(=O)c3cc2O)nn1)[C@H]1CC2CC[C@@H](N2)[C@H]1F [Compound 7A]	0.01 to 15 nM	0.01 to 15 nM	
CN(c1cnc(-c2cc3cccnc3cc2O)nn1)C1CC2CCC(N2)[C@@H]1F (stereo partly shown) [Compound 23]	501 to 10000 nM	101 to 500 nM	
CCc1coc2cc(-c3ncc(N(C)[C@@H]4C[C@H]5CC[C@H](N5)[C@@H]4F)nn3)c(O)cc2c1=O [Compound 93]	16 to 50 nM	16 to 50 nM	
CCn1ncc2cc(-c3ncc(N(C)[C@H]4C[C@@H]5CCC(N5)[C@H]4F)nn3)c(O)cc2c1=O [Compound 165]	0.01 to 15 nM	0.01 to 15 nM	
